In patent US10457637B2, “Benzenesulfonamide derivatives as inverse agonists of retinoid-related orphan receptor gamma (RORγ(T))” (GALDERMA RESEARCH & DEVELOPMENT, priority 2014, dated 2019):

Molecular target: ROR gamma ligand-binding domain (hRORg) (Homo sapiens (Human), UniProt P51449)
Assay: GAL4-RORγ transactivation (luciferase reporter, HG5LN HeLa line)
Type: cell-based
Conditions: 18 hours incubation
From the text: GAL4-RORγ Transactivation
The RORγ transactivation model was developed from the line HG5LN, which is a HeLa line that stably expresses a luciferase reporter gene controlled by a pentamer of the GAL4 recognition domain of yeast and of a β-globin promoter. The HG5LN line was stably transfected by the DNA-binding domain (DBD) of GAL4 fused to the ROR gamma ligand-binding domain (LBD). Molecules that inhibit the ROR gamma constitutive activity reduce the luciferase expression, thus leading to a reduction in the emitted luminescence.
The cells are seeded in 384-well plates (5000 cells in 45 μL/well of culture medium containing 10% fetal calf serum) and incubated for 4 hours at 37° C., 5% CO2. 5 μL of the test molecules (compounds described in the tables described above) are then added to each well and the plates are incubated for 18 hours at a temperature of 37° C. under 5% of CO2. 20 μL of luciferase substrate (Promega) are added to each well and the luminescence emitted is read by a microplate reader.
The luminescence units (“RLU”) are normalized by positive controls (“POS” containing a saturated concentration of benzenesulfonamide, N-(2,2,2-trifluoroethyl)-N-[4-[2,2,2-trifluoro-1-hydroxy-1-(trifluoromethyl)ethyl]phenyl]) and negative controls (“NEG” containing DMSO): % inhibition=((RLU−NEG)*100)/(POS−NEG). The IC50 values are calculated from a 4-parameter logistic model using the XLFit software (IDBS).

ROR gamma ligand-binding domain (hRORg), sequence (P51449 269-508): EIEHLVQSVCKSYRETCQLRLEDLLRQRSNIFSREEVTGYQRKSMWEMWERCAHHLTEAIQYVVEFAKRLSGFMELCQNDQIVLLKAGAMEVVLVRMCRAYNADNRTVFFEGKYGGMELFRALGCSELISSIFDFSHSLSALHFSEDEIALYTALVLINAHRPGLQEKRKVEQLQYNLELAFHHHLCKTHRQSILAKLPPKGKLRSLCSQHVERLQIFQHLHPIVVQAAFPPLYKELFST

SMILES | IC50 [nM]
CCc1ccc(N(CC(C)C)S(=O)(=O)c2ccc(NCC3CCN(C(C)=O)CC3)c(S(C)(=N)=O)c2)cc1 (stereo not drawn) [compound 84, 4-(((1-acetylpiperidin-4-yl)methyl)amino)-N-(4-ethylphenyl)-N-isobutyl-3-(S-methylsulfonimidoyl)benzenesulfonamide] | > 1000
CCc1ccc(N(CC(C)C)S(=O)(=O)c2ccc(OCC3(F)COC3)c(S(C)(=N)=O)c2)cc1 (stereo not drawn) [compound 32, N-(4-eethylphenyl)-4-((3-fluorooxetan-3-yl)methoxy)-N-isobutyl-3-(S-methylsulfonimidoyl)benzenesulfonamide] | > 1000
CCc1ccc(N(CC(C)C)S(=O)(=O)c2ccc(NC3CCS(=O)(=O)C3)c(S(C)(=N)=O)c2)cc1 (stereo not drawn) [compound 86, 4-((1,1-dioxidotetrahydrothiophen-3-yl)amino)-N-(4-ethylphenyl)-N-isobuytl-3-(S-methylsulfonimidoyl)benzenesulfonamide] | 100 to 1000
CCc1ccc(N(CC(C)C)S(=O)(=O)c2ccc(OCC3CCN(S(C)(=O)=O)CC3)c(S(C)(=N)=O)c2)cc1 (stereo not drawn) [compound 51] | > 1000
CCc1ccc(N(CC(C)C)S(=O)(=O)c2ccc(S(=N)(=O)CC3CCOCC3)cc2)cc1 (stereo not drawn) [compound 28, N-(4-ethylphenyl)-N-isobutyl-4-(tetrahydropyran-4-ylmethanesulfoximimyl)benzenesulfonamide] | > 1000
CCc1ccc(N(CC(C)C)S(=O)(=O)c2ccc(NC3CCC(=O)NC3)c(S(C)(=N)=O)c2)cc1 (stereo not drawn) [compound 85, N-(4-ethylphenyl)-N-isobutyl-3-(S-methylsulfonimidoyl)-4-((6-oxopiperidin-3-yl)amino)benzenesulfonamide] | > 1000
CCc1ccc(N(CC(C)C)S(=O)(=O)c2ccc(OC3CCN(C(=O)OC(C)(C)C)CC3)c(S(C)(=N)=O)c2)cc1 (stereo not drawn) [compound 33, tert-butyl 4-(4-(N-(4-ethylphenyl)-N-isobutylsulfamoyl)-2-(S-methylsulfonimidoyl)phenoxy)piperidine-1-carboxylate] | > 1000
CCc1ccc(N(CC(C)C)S(=O)(=O)c2ccc(NCC3CCS(=O)(=O)CC3)c(S(C)(=N)=O)c2)cc1 (stereo not drawn) [compound 57, 4-(((1,1-dioxidotetrahydro-2H-thiopyran-4-yl)methyl)amino)-N-(4-ethylphenyl)-N-isobutyl-3-(S-methylsulfonimidoyl)benzenesulfonamide] | > 1000
CCc1ccc(N(CC(C)C)S(=O)(=O)c2ccc(OCC3CCNCC3)c(S(C)(=N)=O)c2)cc1 (stereo not drawn) [compound 49, N-(4-ethylphenyl)-N-isobutyl-3-(S-methylsulfonimidoyl)-4-(piperidin-4-ylmethoxy)benzenesulfonamide] | > 1000
CCc1ccc(N(CC(C)C)S(=O)(=O)c2ccc(Oc3ccc(C#N)cc3)c(S(C)(=N)=O)c2)cc1 (stereo not drawn) [compound 80, 4-(4-cyanophenoxy)-N-(4-ethylphenyl)-N-isobutyl-3-(S-methylsulfonimidoyl)benzenesulfonamide] | > 1000
CCc1ccc(N(CC(C)C)S(=O)(=O)c2ccc(NC3CCS(=O)(=O)CC3)c(S(C)(=N)=O)c2)cc1 (stereo not drawn) [compound 83, 4-((1,1-dioxidotetrahydro-2H-thiopyran-4-yl)amino)-N-(4-ethylphenyl)-N-isobutyl-3-(S-methylsulfonimidoyl)benzenesulfonamide] | > 1000
CCc1ccc(N(CC(C)C)S(=O)(=O)c2ccc3c(c2)sc(=O)n3CC2CCOCC2)cc1 [compound 72] | 100 to 1000
CCc1ccc(N(CC(C)C)S(=O)(=O)c2ccc(OCc3ccncc3)c(S(C)(=N)=O)c2)cc1 (stereo not drawn) [compound 39, N-(4-ethylphenyl)-N-isobutyl-3-(S-methylsulfonimidoyl)-4-(pyridin-4-ylmethoxy)benzenesulfonamide] | > 1000
CCc1ccc(N(CC(C)C)S(=O)(=O)c2ccc3c(c2)[S+]([O-])C(C)(C)N3CC2CCOCC2)cc1 (stereo not drawn) [compound 74, 2,2-dimethyl-1-oxo-3-(tetrahydropyran-4-ylmethyl)-2,3-dihydro-1H-1λ^4-benzothiazole-6-sulfonic acid (4-ethylphenyl)isobutylamide] | 100 to 1000
CCc1ccc(N(CC(C)C)S(=O)(=O)c2ccc(SCC3CCOCC3)c(C(=O)OC)c2)cc1 [compound 17, methyl 5-[(4-ethylphenyl)isobutylsulfamoyl]-2-(tetrahydropyran-4-ylmethylsulfanyl)benzoate] | > 1000
CCc1ccc(N(CC(C)C)S(=O)(=O)c2ccc3c(c2)[S+]([O-])CCN3CC2CCOCC2)cc1 (stereo not drawn) [compound 71, 1-oxo-4-(tetrahydropyran-4-ylmethyl)-1,2,3,4-tetrahydro-1λ^4-benzo[1,4]thiazine-7-sulfonic acid (4-ethylphenyl)isobutylamide] | > 1000
CCc1ccc(N(CC(C)C)S(=O)(=O)c2ccc3c(c2)N(CC2CCOCC2)CCS3)cc1 [compound 6, 4-(tetrahydropyran-4-ylmethyl)-3,4-dihydro-2H-benzo[1,4]thiazine-6-sulfonic acid (4-ethylphenyl)isobutylamide] | > 1000

Continued, values first:

IC50 [nM] | SMILES
< 100 | CCc1ccc(N(CC(C)C)S(=O)(=O)c2ccc(N3CC4(COC4)C3)c(S(C)(=N)=O)c2)cc1 (stereo not drawn) [compound 111, N-(4-ethylphenyl)-N-isobutyl-3-(S-methylsulfonimidoyl)-4-(2-oxa-6-azaspiro[3.3]heptan-6-yl)benzenesulfonamide]
> 1000 | CCc1ccc(N(CC(C)C)S(=O)(=O)c2ccc(NCc3nonc3C)c(S(C)(=N)=O)c2)cc1 (stereo not drawn) [compound 88, N-(4-ethylphenyl)-N-isobutyl-4-(((4-methyl-1,2,5-oxadiazol-3-yl)methyl)amino)-3-(S-methylsulfonimidoyl)benzenesulfonamide]
100 to 1000 | CCc1ccc(N(CC(C)C)S(=O)(=O)c2ccc(N3CCCOCC3)c(S(C)(=N)=O)c2)cc1 (stereo not drawn) [compound 137, N-(4-ethylphenyl)-N-isobutyl-3-(S-methylsulfonimidoyl)-4-(1,4-oxazepan-4-yl)benzenesulfonamide]
> 1000 | CCc1ccc(N(CC(C)C)S(=O)(=O)c2ccc(NC[C@H]3CNC(=O)O3)c(S(C)(=N)=O)c2)cc1 (stereo partly drawn) [compound 106, N-(4-ethylphenyl)-N-isobutyl-3-(S-methylsulfonimidoyl)-4-((((S)-2-oxooxazolidin-5-yl)methyl)amino)benzenesulfonamide]
> 1000 | CCc1ccc(N(CC(C)C)S(=O)(=O)c2ccc(NCC3(CC)COC3)c(S(C)(=N)=O)c2)cc1 (stereo not drawn) [compound 126, 4-(((3-ethyloxetan-3-yl)methyl)amino)-N-(4-ethylphenyl)-N-isobutyl-3-(S-methylsulfonimidoyl)benzenesulfonamide]
> 1000 | CCc1ccc(N(CC(C)C)S(=O)(=O)c2ccc(NCC3CCN(C(=O)OC)CC3)c(S(C)(=N)=O)c2)cc1 (stereo not drawn) [compound 93, methyl 4-(((4-(N-(4-ethylphenyl)-N-isobutylsulfamoyl)-2-(S-methylsulfonimidoyl)phenyl)amino)methyl)piperidine-1-carboxylate]
100 to 1000 | CCc1ccc(N(CC(C)C)S(=O)(=O)c2ccc(NCc3ccnc(OC)c3)c(S(C)(=N)=O)c2)cc1 (stereo not drawn) [compound 127, N-(4-ethylphenyl)-N-isobutyl-4-(((2-methoxypyridin-4-yl)methyl)amino)-3-(S-methylsulfonimidoyl)benzenesulfonamide]
> 1000 | CCc1ccc(N(CC(C)C)S(=O)(=O)c2ccc(NCC3CCNC(=O)C3)c(S(C)(=N)=O)c2)cc1 (stereo not drawn) [compound 96, 4-N-(4-ethylphenyl)-N-isobutyl-3-(S-methylsulfonimidoyl)-4-(((2-oxopiperidin-4-yl)methyl)amino)benzenesulfonamide]
> 1000 | CCc1ccc(N(CC(C)C)S(=O)(=O)c2ccc(N3CC4(CN(C(=O)OC(C)(C)C)C4)C3)c(S(C)(=N)=O)c2)cc1 (stereo not drawn) [compound 110, tert-butyl 6-(4-(N-(4-ethylphenyl)-N-isobutylsulfamoyl)-2-(S-methylsulfonimidoyl)phenyl)-2,6-diazaspiro[3.3]heptane-2-carboxylate]
> 1000 | CCc1ccc(N(CC(C)C)S(=O)(=O)c2ccc(NCC3CCN(C(=O)OC)C3)c(S(C)(=N)=O)c2)cc1 (stereo not drawn) [compound 94, methyl 3-(((4-(N-(4-ethylphenyl)-N-isobutylsulfamoyl)-2-(S-methylsulfonimidoyl)phenyl)amino)methyl)pyrrolidine-1-carboxylate]
> 1000 | CCc1ccc(N(CC(C)C)S(=O)(=O)c2ccc(N3CC4(CN(C(C)=O)C4)C3)c(S(C)(=N)=O)c2)cc1 (stereo not drawn) [compound 122, 4-(6-acetyl-2,6-diazaspiro[3.3]heptan-2-yl)-N-(4-ethylphenyl)-N-isobutyl-3-(S-methylsulfonimidoyl)benzenesulfonamide]
100 to 1000 | COc1ccc(N(C(C)C)S(=O)(=O)c2ccc(OCC3CCOCC3)c(S(C)(=N)=O)c2)c(C)c1 (stereo not drawn) [compound 143, N-isopropyl-N-(4-methoxy-2-methylphenyl)-3-(S-methylsulfonimidoyl)-4-((tetrahydro-2H-pyran-4-yl)methoxy)benzenesulfonamide]
> 1000 | CCc1ccc(N(CC(C)C)S(=O)(=O)c2ccc(N3CCCC4(COC4)C3)c(S(C)(=N)=O)c2)cc1 (stereo not drawn) [compound 109, N-(4-ethylphenyl)-N-isobutyl-3-(S-methylsulfonimidoyl)-4-(2-oxa-6-azaspiro[3.5]nonan-6-yl)benzenesulfonamide]
